Test results published in ChEMBL document CHEMBL3132819, “2-Hydroxy-substituted cinnamic acids and acetanilides are selective growth inhibitors of Mycobacterium tuberculosis” (Medchemcomm, 2014).
≈ marks a conversion by molar mass, not a printed value.

Tested on: Mycobacterium tuberculosis variant bovis BCG
Experiment: Antibacterial activity against Mycobacterium bovis BCG ATCC 35734 after 2 weeks by spot culture growth inhibition assay
Format: functional
Settings: ATCC 35734, 336 h

With `CC(=O)Nc1ccc(O)cc1` [ACETAMINOPHEN] the MIC was greater than 661 µM.
Work on `CC(C)=CCOc1cccc(/C=C/C(=O)O)c1` yielded an MIC of 258 µM (≈ 59.9 µg/mL).
With `NNC(=O)c1ccncc1` [ISONIAZID] the MIC was 0.73 µM (≈ 0.1 µg/mL).
In the case of `COC(=O)/C=C/c1ccc(O)cc1` [METHYL P-HYDROXYCINNAMATE], the MIC is reported as 337 µM (≈ 60 µg/mL).
Compound `O=C(O)/C=C/c1ccccc1` [CINNAMIC ACID] has an MIC of 405 µM (≈ 60 µg/mL).
In the case of `CC(C)=CCOc1ccccc1/C=C/C(=O)O`, the MIC is reported as 258 µM (≈ 59.9 µg/mL).
Work on `CC(C)=CCOc1ccc(/C=C/C(=O)O)cc1` yielded an MIC of 86.1 µM (≈ 20 µg/mL).
`COC(=O)/C=C/c1cccc(O)c1` was tested, and the MIC was 561 µM (≈ 100 µg/mL).
Work on `COC(=O)/C=C/c1ccc(OC/C=C(\C)CCC=C(C)C)cc1` yielded an MIC of 254 µM (≈ 79.9 µg/mL).
For `O=C(O)/C=C/c1ccc(O)cc1` [COUMARIC ACID], the MIC was 366 µM (≈ 60.1 µg/mL).
With `COC(=O)/C=C/c1cccc(OCC=C(C)C)c1` the MIC was 244 µM (≈ 60.1 µg/mL).
`CC(=O)Nc1cccc(O)c1` [METACETAMOL] was tested, and the MIC was greater than 661 µM.
Work on `O=C(O)/C=C/c1cccc(O)c1` yielded an MIC of 609 µM (≈ 100 µg/mL).
For `CC(C)=CCC/C(C)=C/COc1ccc(/C=C/C(=O)O)cc1`, the MIC was 134 µM (≈ 40.3 µg/mL).
Compound `O=C(O)/C=C/c1ccccc1O` [O-COUMARIC ACID] has an MIC of 244 µM (≈ 40.1 µg/mL).
`O=C(O)/C=C/c1ccc2c(c1)OCO2` gave an MIC of 416 µM (≈ 79.9 µg/mL).
Compound `CO[C@H]1/C=C/O[C@@]2(C)Oc3c(C)c(O)c4c(O)c(c(/C=N/N5CCN(C)CC5)c(O)c4c3C2=O)NC(=O)/C(C)=C\C=C\[C@H](C)[C@H](O)[C@@H](C)[C@@H](O)[C@@H](C)[C@H](OC(C)=O)[C@@H]1C` [RIFAMPIN] has an MIC of 0.0607 µM (≈ 0.05 µg/mL).
`COC(=O)/C=C/c1ccccc1OCC=C(C)C` showed an MIC greater than 406 µM.
`COC(=O)/C=C/c1ccccc1O` showed an MIC of 112 µM (≈ 20 µg/mL).
For `COC(=O)/C=C/c1ccc(OCC=C(C)C)cc1`, the MIC was 60.9 µM (≈ 15 µg/mL).
Compound `CC(=O)Nc1ccccc1O` has an MIC of 132 µM (≈ 20 µg/mL).
